Read-outs that look alike come from different tables or passages of the source.
Experiments:
non-expressing oocytes [1] = format: cell-based, Xenopus laevis; conditions: non-expressing oocytes, total [3H]CQ transport, normalised to the oocyte type control
In short: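 Oocytes (ten per treatment, ≥4 independent frogs/days) were preloaded by injecting VF-6 in 25 nL ND96 at pH 5.0, 5.5, 6.0 or 7.0, or Na^+-free choline buffer, then uptake run 1.5 h, 27.5 °C, ND96 pH 5.5 by default. Internal concentrations assumed ~400 nL oocyte volume.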

PfCRT^Dd2 [2] = molecular target: T1, PfCRT^Dd2 (Plasmodium falciparum, UniProt Q9N623, A220S/I356T/K76T/M74I/N326S/N75E/Q271E/R371I); test: [3H]CQ uptake into Xenopus oocytes, cis-inhibition by unlabelled solute; format: cell-based; conditions: PfCRTDd2 oocytes, background [3H]CQ accumulation subtracted, normalised to oocyte type control
In short: (§1)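 Oocytes expressing PfCRT isoforms, or non-expressing controls, were incubated 1.5 h at 27.5 °C in ND96 buffer pH 5.5 (96 mM NaCl, 2 mM KCl, 1 mM MgCl2, 1.8 mM CaCl2, 10 mM MES, 10 mM Tris-base), measuring uptake from acidic medium into cytosol. Oocytes were washed ice-cold, SDS-lysed and counted by scintillation.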

PfCRT^Ecu1110 [3] = molecular target: T2, PfCRT^Ecu1110 (Plasmodium falciparum, UniProt Q9N623, A220S/I356L/K76T/N326D); test: as above; format: cell-based; conditions: for Uptake of [3H]CQ (% PfCRTEcu1110 control), cis-inhibition / PfCRT-mediated [3H]CQ transport, cis-inhibition (% PfCRTEcu1110 control): PfCRTEcu1110 oocytes; for Uptake of [3H]CQ (% PfCRTEcu1110 control), cis-inhibition: total [3H]CQ transport, normalised to the oocyte type control; for PfCRT-mediated [3H]CQ transport, cis-inhibition (% PfCRTEcu1110 control): background [3H]CQ accumulation subtracted, normalised to oocyte type control
In short: as §1

non-expressing oocytes [4] = test: cells; format: cell-based, Xenopus laevis; conditions: non-expressing oocytes, total [3H]CQ transport, normalised to the oocyte type control
Source text: (§2) The orientation of PfCRT in the parasite’s DV membrane, and also in the oocyte plasma membrane, is such that its N- and C-termini extend into the cytosol. The oocytes were suspended in a reaction buffer adjusted to pH 5.5 to mimic the pH of the DV lumen[1],[2]. In this scenario, the transport of a substrate via PfCRT from the acidic extracellular solution into the oocyte cytosol[15] is analogous to the parasite’s PfCRT-mediated efflux of a substrate from the acidic DV and into the cytosol. Unless specified otherwise, this is the direction in which substrate transport was measured in the oocyte assays.
(§3) Unless specified otherwise, the transport assays were conducted over 1.5 h at 27.5 °C and the reaction buffer was ND96 (96 mM NaCl, 2 mM KCl, 1 mM MgCl2, 1.8 mM CaCl2, 10 mM MES and 10 mM Tris-base) at pH 5.5.
(§4) Ten oocytes were washed twice with the relevant ND96 buffer. […] The assay was terminated by removing the reaction buffer and washing the oocytes with ice-cold ND96 buffer. The oocytes were lysed in 10% (w/v) sodium dodecyl sulfate (SDS) and the radioactivity accumulated within each oocyte was measured with a MicroBeta^2 microplate liquid scintillation analyser (PerkinElmer).
(§5) At least four independent experiments were performed (on different days and using oocytes from different frogs), and within each experiment measurements were made from ten oocytes per treatment.

PfCRT^3D7 [5] = molecular target: T3, PfCRT^3D7 (Plasmodium falciparum, UniProt Q8IBZ9); test: cell-based; format: cell-based; conditions: PfCRT3D7 oocytes, total [3H]CQ transport, normalised to the oocyte type control
Source text: as §2, §3, §4, §5

PfCRT^3D7 [6] = molecular target: T3, PfCRT^3D7; test: cell-based; format: cell-based; conditions: PfCRT3D7 oocytes; for Uptake of [3H]CQ (% PfCRT3D7 control), trans-stimulation: total [3H]CQ transport, normalised to the oocyte type control; for PfCRT-mediated [3H]CQ transport, trans-stimulation (% PfCRT3D7 control): normalised to oocyte type control
In short: (§6)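 Transport measured in Xenopus oocytes expressing the transporters, 1.5 h at 27.5 °C in ND96 pH 5.5 unless noted. For trans-stimulation, VF-6 injected in 25 nL ND96 at pH 5.0–7.0 or Na^+-free (choline) buffer; intracellular levels based on ~400 nL oocyte volume. Ten oocytes per treatment, ≥4 experiments.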

PfCRT^Dd2 [7] = molecular target: T1, PfCRT^Dd2; test: cell-based; format: cell-based; conditions: for Uptake of [3H]CQ (% PfCRTDd2 control), trans-stimulation / PfCRT-mediated [3H]CQ transport, trans-stimulation (% PfCRTDd2 control): PfCRTDd2 oocytes; for Uptake of [3H]CQ (% PfCRTDd2 control), trans-stimulation: total [3H]CQ transport, normalised to the oocyte type control; for PfCRT-mediated [3H]CQ transport, trans-stimulation (% PfCRTDd2 control): normalised to oocyte type control; for [3H]CQ transport (% PfCRTDd2 control), trans-stimulation, PfCRTDd2: PfCRT-mediated component (background subtracted), mean ± SEM, SEM
In short: as §6

PfNT1 = molecular target: T4, PfNT1 (Plasmodium falciparum, UniProt Q8IDM6); test: cell-based; format: cell-based; conditions: PfNT1 oocytes, total [3H]CQ transport, normalised to the oocyte type control
T4 construct: expressed in transfected cells; host or cells: Xenopus laevis oocytes (stage V-VI), cRNA-injected
In short: as §6

PfCRT^Ecu1110 [8] = molecular target: T2, PfCRT^Ecu1110; test: cell-based; format: cell-based; conditions: for Uptake of [3H]CQ (% PfCRTEcu1110 control), trans-stimulation / PfCRT-mediated [3H]CQ transport, trans-stimulation (% PfCRTEcu1110 control): PfCRTEcu1110 oocytes; for Uptake of [3H]CQ (% PfCRTEcu1110 control), trans-stimulation: total [3H]CQ transport, normalised to the oocyte type control; for PfCRT-mediated [3H]CQ transport, trans-stimulation (% PfCRTEcu1110 control): normalised to oocyte type control; for [3H]CQ transport (% PfCRTDd2 control), trans-stimulation, PfCRTEcu1110: PfCRT-mediated component (background subtracted), sheet title says normalised to PfCRTDd2 control, mean ± SEM, SEM
In short: as §6

[9] = [test solute]i = 45 mM (30 mM for some solutes due to solubility)
[10] = [test solute]i = 5 mM (intracellular)
[11] = [test solute]i = 45 mM (intracellular; 30 mM for some solutes due to solubility)
[12] = [test solute]i = 5 mM (injected)

T3 sequence (Q8IBZ9 59-398): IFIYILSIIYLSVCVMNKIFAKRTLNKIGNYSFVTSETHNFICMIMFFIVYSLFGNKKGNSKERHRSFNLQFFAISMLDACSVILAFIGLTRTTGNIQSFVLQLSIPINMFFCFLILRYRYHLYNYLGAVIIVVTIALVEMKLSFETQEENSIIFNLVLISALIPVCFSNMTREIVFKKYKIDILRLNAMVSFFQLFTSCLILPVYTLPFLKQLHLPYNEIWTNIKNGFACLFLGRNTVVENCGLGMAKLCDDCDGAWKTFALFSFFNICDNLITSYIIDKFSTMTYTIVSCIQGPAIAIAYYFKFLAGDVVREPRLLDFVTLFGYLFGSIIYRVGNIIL
T2 sequence (Q9N623 whole entry A220S/I356L/K76T/N326D): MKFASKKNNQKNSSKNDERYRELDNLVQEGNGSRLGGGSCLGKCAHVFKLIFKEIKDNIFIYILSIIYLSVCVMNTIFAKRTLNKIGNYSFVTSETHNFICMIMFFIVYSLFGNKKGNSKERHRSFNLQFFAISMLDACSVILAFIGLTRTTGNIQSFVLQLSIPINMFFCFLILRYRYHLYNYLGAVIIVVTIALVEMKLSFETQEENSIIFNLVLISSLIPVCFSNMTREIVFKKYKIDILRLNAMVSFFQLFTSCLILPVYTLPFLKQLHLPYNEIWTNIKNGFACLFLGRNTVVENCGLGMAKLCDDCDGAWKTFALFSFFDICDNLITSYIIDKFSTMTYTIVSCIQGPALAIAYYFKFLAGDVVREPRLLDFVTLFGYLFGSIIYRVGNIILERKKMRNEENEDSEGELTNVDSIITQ
T1 sequence (Q9N623 whole entry A220S/I356T/K76T/M74I/N326S/N75E/Q271E/R371I, canonical isoform): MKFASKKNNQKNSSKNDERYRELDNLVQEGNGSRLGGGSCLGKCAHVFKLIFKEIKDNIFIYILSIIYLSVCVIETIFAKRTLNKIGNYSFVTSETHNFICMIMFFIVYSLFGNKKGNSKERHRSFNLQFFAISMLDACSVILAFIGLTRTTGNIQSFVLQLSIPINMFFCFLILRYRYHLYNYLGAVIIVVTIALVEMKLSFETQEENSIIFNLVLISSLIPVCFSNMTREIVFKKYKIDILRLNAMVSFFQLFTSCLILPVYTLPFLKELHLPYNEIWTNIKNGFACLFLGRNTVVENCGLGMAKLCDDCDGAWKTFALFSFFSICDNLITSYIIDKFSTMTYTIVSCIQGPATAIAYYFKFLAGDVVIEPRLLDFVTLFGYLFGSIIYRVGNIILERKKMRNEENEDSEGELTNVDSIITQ
T4 sequence (Q8IDM6 whole entry): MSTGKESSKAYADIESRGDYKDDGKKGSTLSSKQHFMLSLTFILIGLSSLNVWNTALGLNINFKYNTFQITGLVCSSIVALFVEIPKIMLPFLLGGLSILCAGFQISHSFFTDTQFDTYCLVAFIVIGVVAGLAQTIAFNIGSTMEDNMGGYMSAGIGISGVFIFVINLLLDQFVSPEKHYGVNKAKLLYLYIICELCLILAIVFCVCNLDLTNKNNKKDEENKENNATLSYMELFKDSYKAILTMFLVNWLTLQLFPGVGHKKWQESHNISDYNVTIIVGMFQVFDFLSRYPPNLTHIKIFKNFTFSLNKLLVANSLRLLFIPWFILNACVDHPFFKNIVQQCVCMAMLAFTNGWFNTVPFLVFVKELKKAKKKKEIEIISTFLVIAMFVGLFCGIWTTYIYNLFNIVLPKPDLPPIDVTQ

PPVQ [PQ-4]
Uptake of [3H]CQ (% non-expressing oocyte control), trans-stimulation (non-expressing oocytes [1]; [test solute]i = 5 mM): 99 ± 3.4 % non-expressing oocyte control | Uptake of [3H]CQ (% non-expressing oocyte control), trans-stimulation (non-expressing oocytes [1]; [9]): 100 ± 2.7 % non-expressing oocyte control | PfCRT-mediated [3H]CQ transport, cis-inhibition (% PfCRTDd2 control) (PfCRT^Dd2 [2]; [test solute] = 0.5 mM): 68 ± 3.7 % PfCRTDd2 control | PfCRT-mediated [3H]CQ transport, cis-inhibition (% PfCRTDd2 control) (PfCRT^Dd2 [2]; [test solute] = 1 mM): 59 ± 2.1 % PfCRTDd2 control | PfCRT-mediated [3H]CQ transport, cis-inhibition (% PfCRTDd2 control) (PfCRT^Dd2 [2]; [test solute] = 2 mM): 37 ± 2.0 % PfCRTDd2 control | Uptake of [3H]CQ (% PfCRTEcu1110 control), cis-inhibition (PfCRT^Ecu1110 [3]; [test solute] = 0.5 mM): 67 ± 2.1 % PfCRTEcu1110 control | Uptake of [3H]CQ (% PfCRTEcu1110 control), cis-inhibition (PfCRT^Ecu1110 [3]; [test solute] = 1 mM): 56 ± 2.8 % PfCRTEcu1110 control | Uptake of [3H]CQ (% PfCRTEcu1110 control), cis-inhibition (PfCRT^Ecu1110 [3]; [test solute] = 2 mM): 48 ± 4.8 % PfCRTEcu1110 control | PfCRT-mediated [3H]CQ transport, cis-inhibition (% PfCRTEcu1110 control) (PfCRT^Ecu1110 [3]; [test solute] = 0.5 mM): 61 ± 3.1 % PfCRTEcu1110 control | PfCRT-mediated [3H]CQ transport, cis-inhibition (% PfCRTEcu1110 control) (PfCRT^Ecu1110 [3]; [test solute] = 1 mM): 51 ± 1.3 % PfCRTEcu1110 control | PfCRT-mediated [3H]CQ transport, cis-inhibition (% PfCRTEcu1110 control) (PfCRT^Ecu1110 [3]; [test solute] = 2 mM): 41 ± 3.2 % PfCRTEcu1110 control | [3H]CQ transport (% PfCRTEcu1110 control), cis-inhibition, PfCRTEcu1110 (PfCRT^Ecu1110 [3]; cis-inhibition, [test solute] = 2 mM, PfCRT-mediated component (background subtracted), sheet title says normalised to PfCRTDd2 control, mean ± SEM, SEM): 13 ± 0.6 % PfCRTEcu1110 control | Uptake of [3H]CQ (% non-expressing oocyte control), cis-inhibition (non-expressing oocytes [4]; [test solute] = 1 mM): 99 ± 5.3 % non-expressing oocyte control | Uptake of [3H]CQ (% non-expressing oocyte control), cis-inhibition (non-expressing oocytes [4]; [test solute] = 2 mM): 100 ± 3.7 % non-expressing oocyte control | Uptake of [3H]CQ (% PfCRT3D7 control), cis-inhibition (PfCRT^3D7 [5]; [test solute] = 0.5 mM): 99 ± 3.9 % PfCRT3D7 control | Uptake of [3H]CQ (% PfCRT3D7 control), cis-inhibition (PfCRT^3D7 [5]; [test solute] = 1 mM): 99 ± 6.3 % PfCRT3D7 control | Uptake of [3H]CQ (% PfCRT3D7 control), cis-inhibition (PfCRT^3D7 [5]; [test solute] = 2 mM): 99 ± 5.3 % PfCRT3D7 control | Uptake of [3H]CQ (% PfCRT3D7 control), trans-stimulation (PfCRT^3D7 [6]; [test solute]i = 5 mM): 134 ± 2.5 % PfCRT3D7 control | Uptake of [3H]CQ (% PfCRT3D7 control), trans-stimulation (PfCRT^3D7 [6]; [9]): 165 ± 4.2 % PfCRT3D7 control | PfCRT-mediated [3H]CQ transport, trans-stimulation (% PfCRT3D7 control) (PfCRT^3D7 [6]; [10]): 129 ± 2.1 % PfCRT3D7 control | PfCRT-mediated [3H]CQ transport, trans-stimulation (% PfCRT3D7 control) (PfCRT^3D7 [6]; [11]): 159 ± 5.2 % PfCRT3D7 control | Uptake of [3H]CQ (% PfCRTDd2 control), trans-stimulation (PfCRT^Dd2 [7]; [test solute]i = 5 mM): 100 ± 3.2 % PfCRTDd2 control | Uptake of [3H]CQ (% PfCRTDd2 control), trans-stimulation (PfCRT^Dd2 [7]; [9]): 115 ± 2.9 % PfCRTDd2 control | PfCRT-mediated [3H]CQ transport, trans-stimulation (% PfCRTDd2 control) (PfCRT^Dd2 [7]; [10]): 98 ± 4.2 % PfCRTDd2 control | PfCRT-mediated [3H]CQ transport, trans-stimulation (% PfCRTDd2 control) (PfCRT^Dd2 [7]; [11]): 110 ± 1.1 % PfCRTDd2 control | [3H]CQ transport (% PfCRTDd2 control), trans-stimulation, PfCRTDd2 (PfCRT^Dd2 [7]; [12]): 98 ± 4.2 % PfCRTDd2 control | [3H]CQ transport (% PfCRTDd2 control), trans-stimulation, PfCRTDd2 (PfCRT^Dd2 [7]; [9]): 110 ± 1.1 % PfCRTDd2 control | Uptake of [3H]CQ (% PfNT1 control), trans-stimulation (PfNT1; [test solute]i = 5 mM): 100 ± 2.5 % PfNT1 control | Uptake of [3H]CQ (% PfNT1 control), trans-stimulation (PfNT1; [9]): 99 ± 3.2 % PfNT1 control | Uptake of [3H]CQ (% PfCRTEcu1110 control), trans-stimulation (PfCRT^Ecu1110 [8]; [test solute]i = 5 mM): 124 ± 2.9 % PfCRTEcu1110 control | Uptake of [3H]CQ (% PfCRTEcu1110 control), trans-stimulation (PfCRT^Ecu1110 [8]; [9]): 138 ± 3.2 % PfCRTEcu1110 control | PfCRT-mediated [3H]CQ transport, trans-stimulation (% PfCRTEcu1110 control) (PfCRT^Ecu1110 [8]; [10]): 120 ± 3.2 % PfCRTEcu1110 control | PfCRT-mediated [3H]CQ transport, trans-stimulation (% PfCRTEcu1110 control) (PfCRT^Ecu1110 [8]; [11]): 132 ± 1.1 % PfCRTEcu1110 control | [3H]CQ transport (% PfCRTDd2 control), trans-stimulation, PfCRTEcu1110 (PfCRT^Ecu1110 [8]; [12]): 36 ± 1.3 % PfCRTEcu1110 control | [3H]CQ transport (% PfCRTDd2 control), trans-stimulation, PfCRTEcu1110 (PfCRT^Ecu1110 [8]; [9]): 40 ± 1.3 % PfCRTEcu1110 control
